Measurements: US7662810B2, “2-arylmethylazetidine carbapenem derivatives and preparation thereof” (Korea Research Institute of Chemical Technology, priority 2004, dated 2010)

Assays:
[1] = target: T1, Dihydropeptidase-1 (DHP-1) (Sus scrofa, UniProt P22412)
T1 sequence (P22412 17-384): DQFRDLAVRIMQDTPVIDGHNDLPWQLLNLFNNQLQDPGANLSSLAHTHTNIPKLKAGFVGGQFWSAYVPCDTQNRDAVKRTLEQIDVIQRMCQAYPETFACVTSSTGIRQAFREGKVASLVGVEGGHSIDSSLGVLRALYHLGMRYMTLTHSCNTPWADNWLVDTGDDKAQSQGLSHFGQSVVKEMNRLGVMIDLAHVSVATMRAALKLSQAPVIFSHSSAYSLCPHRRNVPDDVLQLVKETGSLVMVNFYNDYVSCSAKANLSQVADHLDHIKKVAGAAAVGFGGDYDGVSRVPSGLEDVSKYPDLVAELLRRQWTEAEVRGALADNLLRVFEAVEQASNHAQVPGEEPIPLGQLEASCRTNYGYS
Experimental: The rate of degradation of the inventive compounds by the action of DHP-1 enzyme extracted from hog kidney was determined as follow.
0.2 unit of the enzyme was allowed to react with the above solution at 30° C., and the absorbance at 299 nm of the remaining medicament was measured to determine the degradation rate. The absorbance was measured at 0, 0.5, 1, 2 and 4 hour points, and T1/2, the time when the concentration of the medicament become the half, was obtained by regression analysis.

[2] = system: Enterobacter cloacae 1321 E; assay: Measurement of Minimum Inhibitory Concentration (MIC); type: cell-based
Experimental: (§1) The antibacterial activities of the compounds of the present invention prepared in the above Examples against Gram-positive and Gram-negative bacteria, MRSA and QRS were tested as follows.
(§2) Respective bacterial strains were inoculated into 3 ml of Fleisch extract broth (beef extract 1%, peptone 1%, NaCl 0.3%, Na2HPO4.12H2O 0.2%, pH 7.4-7.5. 10% horse serum was supplemented for Streptococcus pyogenes and S. facium) and cultured on a shaking incubator at 37° C. for 18 hours. About 10^4 CFU/spot of the cultured bacterial strains were inoculated onto Müller-Hinton agar plates containing serial double dilutions (final concentration of 0.002 to 100 μg/ml) of a test compound employing an automatic inoculator (Dynatech, USA), and incubated at 37° C. for 18 hours. When the incubation was completed, the minimum inhibitory concentration was determined. Meropenem (Yuhan corporation, Korea) and vancomycin (Cj Inco., Korea) were used as standard antibiotics, respectively.

Escherichia coli DC 2 = assay: as above; type: cell-based
Experimental: as §1, §2

[3] = system: Salmonella typhimurium 179; assay: as above; type: cell-based; conditions: Salmonella typhimurium 179
Experimental: as §1, §2

[4] = system: Enterobacter cloacae P 99; assay: as above; type: cell-based
Experimental: as §1, §2

[5] = system: Staphylococcus aureus 285; assay: as above; type: cell-based
Experimental: as §1, §2

Escherichia coli 078 = assay: as above; type: cell-based
Experimental: as §1, §2

[6] = system: Staphylococcus pyogenes 77A; assay: as above; type: cell-based; conditions: Staphylococcus pyogenes 77A
Experimental: as §1, §2

[7] = system: Staphylococcus pyogenes 308A; assay: as above; type: cell-based; conditions: Staphylococcus pyogenes 308A
Experimental: as §1, §2

[8] = system: Staphylococcus faecium MD 8b; assay: as above; type: cell-based; conditions: Staphylococcus faecium MD 8b
Experimental: as §1, §2

Escherichia coli DC 0 = assay: as above; type: cell-based
Experimental: as §1, §2

Escherichia coli 1507 E = assay: as above; type: cell-based
Experimental: as §1, §2

[9] = system: Klebsiella oxytoca 1082 E; assay: as above; type: cell-based
Experimental: as §1, §2

[10] = system: Klebsiella aerogenes 1522 E; assay: as above; type: cell-based
Experimental: as §1, §2

[11] = system: Staphylococcus aureus 503; assay: as above; type: cell-based
Experimental: as §1, §2

Escherichia coli TEM = assay: as above; type: cell-based; conditions: Escherichia coli TEM
Experimental: as §1, §2

[12] = system: Staphylococcus aureus 695E; assay: Measurement of Minimum Inhibitory Concentration (MIC), MRSA; type: cell-based; conditions: Staphylococcus aureus 695E
Experimental: as §1, §2

[13] = system: Staphylococcus aureus 88E; assay: as above; type: cell-based; conditions: Staphylococcus aureus 88E
Experimental: as §1, §2

[14] = system: Staphylococcus aureus 121E; assay: as above; type: cell-based; conditions: Staphylococcus aureus 121E
Experimental: as §1, §2

[15] = system: Staphylococcus aureus 208E; assay: as above; type: cell-based; conditions: Staphylococcus aureus 208E
Experimental: as §1, §2

[16] = system: Staphylococcus aureus 694E; assay: as above; type: cell-based; conditions: Staphylococcus aureus 694E
Experimental: as §1, §2

[17] = system: Staphylococcus aureus 256E; assay: as above; type: cell-based; conditions: Staphylococcus aureus 256E
Experimental: as §1, §2

[18] = system: Staphylococcus aureus 690E; assay: as above; type: cell-based; conditions: Staphylococcus aureus 690E
Experimental: as §1, §2

[19] = system: Staphylococcus aureus 697E; assay: as above; type: cell-based; conditions: Staphylococcus aureus 697E
Experimental: as §1, §2

[20] = system: Staphylococcus aureus 693E; assay: as above; type: cell-based; conditions: Staphylococcus aureus 693E
Experimental: as §1, §2

[21] = system: Staphylococcus aureus 692E; assay: as above; type: cell-based; conditions: Staphylococcus aureus 692E
Experimental: as §1, §2

[22] = system: Staphylococcus epidermidis 178; assay: Measurement of Minimum Inhibitory Concentration (MIC), QRS; type: cell-based; conditions: QRS, Staphylococcus epidermidis 178
Experimental: as §1, §2

[23] = system: Staphylococcus aureus 179; assay: as above; type: cell-based; conditions: QRS, Staphylococcus aureus 179
Experimental: as §1, §2

[24] = system: Staphylococcus aureus 241; assay: as above; type: cell-based; conditions: QRS, Staphylococcus aureus 241
Experimental: as §1, §2

[25] = system: Staphylococcus aureus 293; assay: as above; type: cell-based; conditions: QRS, Staphylococcus aureus 293
Experimental: as §1, §2

[26] = system: Staphylococcus epidermidis 291; assay: as above; type: cell-based; conditions: QRS, Staphylococcus epidermidis 291
Experimental: as §1, §2

Row | Structure (SMILES) | T1/2 (time when the concentration of the medicament become the half) [1] | MIC [2] [µg/mL] | MIC (Escherichia coli DC 2) [µg/mL] | MIC [3] [µg/mL] | MIC [4] [µg/mL] | MIC [5] [µg/mL] | MIC (Escherichia coli 078) [µg/mL] | MIC [6] [µg/mL] | MIC [7] [µg/mL] | MIC [8] [µg/mL] | MIC (Escherichia coli DC 0) [µg/mL] | MIC (Escherichia coli 1507 E) [µg/mL] | MIC [9] [µg/mL] | MIC [10] [µg/mL] | MIC [11] [µg/mL] | MIC (Escherichia coli TEM) [µg/mL] | MIC [12] [µg/mL] | MIC [13] [µg/mL] | MIC [14] [µg/mL] | MIC [15] [µg/mL] | further results
1 | C[C@@H](O)[C@H]1C(=O)N2C(C(=O)[O-])=C(SC3CN(Cc4ccc(F)cc4)C3)[C@H](C)[C@H]12.[K+] [Exam. 19, Potassium(1R,5S,6S)-2-[1-(4-fluorobenzyl)-azetidine-3-yl-thio]-6-[(1R)-1-hydroxylethyl]-1-methylcarbapen-2-em-3-carboxylate] | 28.16 | 0.049 | 0.025 | 0.049 | 0.098 | 0.025 | 0.025 | 0.002 | 0.002 | 1.563 | 0.098 | 0.049 | 0.049 | 0.098 | 0.013 | 0.049 | 0.195 | 0.049 | 0.049 | 0.025 | MIC [16]: 3.125 µg/mL; MIC [17]: 0.025 µg/mL; MIC [18]: 0.391 µg/mL; MIC [19]: 0.049 µg/mL; MIC [20]: 3.125 µg/mL; MIC [21]: 0.025 µg/mL; MIC [22]: 0.195 µg/mL; MIC [23]: 0.049 µg/mL; MIC [24]: 0.049 µg/mL; MIC [25]: 0.195 µg/mL; MIC [26]: 0.391 µg/mL
2 | COc1ccccc1CN1CC(SC2=C(C(=O)[O-])N3C(=O)[C@H]([C@@H](C)O)[C@H]3[C@H]2C)C1.[K+] [Exam. 16, Potassium(1R,5S,6S)-2-[1-(2-methoxybenzyl)-azetidine-3-yl-thio]-6-[(1R)-1-hydroxylethyl]-1-methylcarbapen-2-em-3-carboxylate] | 200.91 | 0.098 | 0.049 | 0.098 | 0.391 | 0.025 | 0.098 | 0.002 | 0.002 | 1.563 | 0.781 | 0.195 | 0.098 | 0.391 | 0.013 | 0.195 | 0.049 | 0.025 | 0.025 | 0.025 | stability against hydrolysis by DHP-1 (in words) [1]: very stable; MIC [16]: 0.049 µg/mL; MIC [17]: 0.025 µg/mL; MIC [18]: 0.195 µg/mL; MIC [19]: 0.025 µg/mL; MIC [20]: 1.563 µg/mL; MIC [21]: 0.049 µg/mL; MIC [22]: 0.195 µg/mL; MIC [23]: 0.049 µg/mL; MIC [24]: 0.025 µg/mL; MIC [25]: 0.098 µg/mL; MIC [26]: 0.391 µg/mL
